Measured values from patent publication US6906035B2, “Antimicrobial cationic peptides” (priority 1995, dated 2005).
“And” between values parts separate entries of the source, which are not always exact repeats. Identical values can stand only once. Like-named read-outs stand apart in the source and are kept apart here. Ends that are not written are not given here.

Columns and labels:
[1] = test system: P. aeruginosa
Description: (§1) FICs are performed by checkerboard titrations of peptides in one dimension of a microtiter plate, and of antibiotics in the other dimension, for example. The FIC is calculated by looking at the impact of one antibiotic on the MIC of the other and vice versa. […] Preferably, an FIC of less than 0.5 is obtained for synergism. As used herein, FIC can be determined as follows: [formula]
(§2) Briefly, cells were grown overnight at 37° C. in LB-S (Luria broth without any salt supplement) and diluted one in 10,000 in the same medium to give concentrations of about 10^4 to 10^5 CFU/ml. The broth dilutions were set up in a 96 well microtiter plate by putting 200 μl of LB-S containing the initial concentration of antibiotic or compound in column 1 and 100 μl of the same medium in columns 2-12. The compounds were diluted by taking 100 μl of broth from column 1 and mixing it with column 2, resulting in a one in two dilution. This was continued to column 10. Finally, 10 μl of bacteria were pipetted into columns 1-11, and the plates incubated overnight at 37° C. The next day the plates were scored for growth in the wells, and the MIC determined.

[2] = test system: S. epidermis; conditions: S. epidermis
Description: as §1, §2

[3] = test system: A. calcoaceticus; experiment: MIC, broth dilution in LB-S; type: cell-based; conditions: additional MICs
Description: (§3) The biological activity of the peptides can be determined by standard methods known to those of skill in the art, such as “minimal inhibitory concentration (MIC)” assay described in the present examples, whereby the lowest concentration at which no change in OD is observed for a given period of time is recorded as MIC. Alternatively, “fractional inhibitory concentration (FIC)” is also useful for determination of synergy between the peptides of the invention, or the peptides in combination with known antibiotics. FICs are performed by checkerboard titrations of peptides in one dimension of a microtiter plate, and of antibiotics in the other dimension, for example. The FIC is calculated by looking at the impact of one antibiotic on the MIC of the other and vice versa. […] Preferably, an FIC of less than 0.5 is obtained for synergism. As used herein, FIC can be determined as follows: [formula]
as §2

[4] = test system: E. cloacae; experiment: MIC, broth dilution in LB-S; type: cell-based; conditions: additional MICs
Description: as §3, §2

[5] = test system: E. coli; experiment: MIC, broth dilution in LB-S; type: cell-based
Description: as §3, §2

[6] = test system: E. faecalis; experiment: MIC, broth dilution in LB-S; type: cell-based; conditions: Table 1b, separate set of experiments
Description: as §3, §2

[7] = test system: K. pneumoniae; experiment: MIC, broth dilution in LB-S; type: cell-based; conditions: additional MICs
Description: as §3, §2

[8] = test system: S. aureus; experiment: MIC, broth dilution in LB-S; type: cell-based
Description: as §3, §2

[9] = test system: X maltophilia; experiment: MIC, broth dilution in LB-S; type: cell-based; conditions: additional MICs
Description: as §3, §2

[10] = test system: Candida albicans; experiment: MIC, broth dilution in LB-S; type: cell-based
Description: as §1, §2

[11] = test system: E. coli ML 35; experiment: Inner membrane permeabilization (ONPG hydrolysis by β-galactosidase); type: cell-based; conditions: E. coli ML 35, ONPG
Description: Inner membrane permeability was determined by measurement in E. coli ML 35 of β-galactosidase activity using ONPG as a substrate. Normally ONPG cannot pass across the cytoplasmic membrane to permit hydrolysis by the cytoplasmic enzyme β-galactosidase. However, cationic peptides, by permeabilizing the inner membrane, unmasks this enzyme leading to color development as ONP is released. […] Addition of citrate increased the lag time before the peptides were able to permeabilize the membranes. When the experiments were executed in cation adjusted media (CAMHB), the lag time was increased up to 30 minutes.

[12] = test system: LPS; experiment: Dansyl polymyxin displacement assay; type: binding; conditions: Dansyl polymyxin displacement from LPS
Excerpt: In addition, the peptides of SEQ ID NO: 5-8 also bound effectively to LPS with high affinity based on Dansyl polymyxin displacement assays (Table 5).

[13] = test system: Red Blood Cells; experiment: Red blood cell lysis; type: cell-based; conditions: concentration lysing Red Blood Cells
[14] = α helical content by CD spectra; type: physicochemical
Description: α Helical Content of Cationic Peptides by CD Spectra
The α helical content of the peptides were measured in buffer, liposomes and 20% Hexafluoroisopropanol (HFPIP). The liposomes constituted of POPC alone or POPC and POPC and 30% POPG (Table 7).

[15] = test system: A. calcoaceticus; conditions: agent alone
Description: as §1
(§4) Synergism is identified as an FIC of about ≦0.5.

[16] = test system: E. cloacae; conditions: agent alone
Description: as §1, §4

[17] = test system: P. aeruginosa; experiment: microbe, parasite or virus in culture; conditions: agent alone
Description: as §1, §4

[18] = test system: X. maltophila; experiment: organism not typed; conditions: agent alone
Description: as §1, §4

KWKSFIKKLTSAAKKVVTTAKPLISS [MBI 26]
MIC ([1]; P. aeruginasa (H 103), additional MICs): 4 µg/mL | MIC ([1]; P. aeruginosa (H187), Table 1a): 11 µg/mL | MIC ([1]; P. aeruginosa (H187), Table 1b, separate set of experiments): 32 µg/mL | MIC P. aeruginosa (H187) ([1]; P. aeruginosa (H187), Table 6): 4.5 µg/mL | MIC ([2]; Table 1a): ≧64 | MIC ([2]; Table 1b, separate set of experiments): 32 µg/mL | MIC [3]: 2 µg/mL | MIC [4]: 2 µg/mL | MIC ([5]; E. coli 0111:B4, additional MICs): 2 µg/mL | MIC ([5]; E. coli (UB1005), Table 1a): 3 µg/mL | MIC ([5]; E. coli (UB1005), Table 1b, separate set of experiments): 4 µg/mL | MIC E. coli (UB 1005) ([5]; E. coli (UB 1005), Table 6): 1.1 µg/mL | MIC ([5]; E. coli. Bort, additional MICs): 2 µg/mL | MIC [6]: ≧64 | MIC [7]: 8 µg/mL | MIC ([8]; S. aureus (K 147), Table 1a): ≧64 | MIC ([8]; S. aureus (K147), Table 1b, separate set of experiments): ≧64 | MIC ([8]; S. aureus (SAP0017), Table 1a): ≧64 | MIC ([8]; S. aureus (SAP0017), Table 1b, separate set of experiments): ≧64 | MIC [9]: 2 µg/mL | MIC ([10]; Candida albicans (CAN105), Table 1b, separate set of experiments): ≧64 | MIC ([10]; Candida alibicans (CAN105), Table 1a): ≧64 | Lag Time [11]: 210 s | Rate of Hydrolysis [11]: 0.081 ΔAU min^−1 | 1max [12]: 38% | RBC Lysis [13]: >55 µg/mL | % α helicity ([14]; 20% HFIP): 70% | % α helicity ([14]; Buffer): 0% | % α helicity ([14]; POPC Liposomes): 0% | % α helicity ([14]; POPC/POPG Liposomes (30% POPG)): 8% | MIC ([15]; A. calcoaceticus isolate 1, strain ATCC 23055): 128 µg/mL and 64 µg/mL | MIC ([15]; A. calcoaceticus isolate 2, strain 23): 32 µg/mL and 64 µg/mL | MIC ([15]; A. calcoaceticus isolate 3, strain 27): 64 µg/mL and 32 µg/mL | MIC ([15]; A. calcoaceticus isolate 4, strain 28): 16 µg/mL and 32 µg/mL | MIC ([15]; A. calcoaceticus isolate 5, strain 8220): 64 µg/mL and 32 µg/mL | MIC ([15]; A. calcoaceticus isolate 6, strain 8221): 64 µg/mL | MIC ([15]; A. calcoaceticus isolate 7, strain 8222): 64 µg/mL | MIC ([15]; A. calcoaceticus isolate 8, strain 8223): 64 µg/mL and 32 µg/mL | MIC ([15]; A. calcoaceticus isolate 9, strain 8224): 64 µg/mL | MIC ([15]; A. calcoaceticus isolate 10, strain 8225): 64 µg/mL | MIC ([15]; A. calcoaceticus isolate 11, strain 8226): 64 µg/mL | MIC ([16]; E. cloacae isolate 14, strain 938-2): 64 µg/mL | MIC ([16]; E. cloacae isolate 15, strain B5546): 64 µg/mL and 32 µg/mL | MIC ([16]; E. cloacae isolate 16, strain R4148): 64 µg/mL and 32 µg/mL | MIC ([16]; E. cloacae isolate 17, strain R4148-2): 64 µg/mL and 32 µg/mL | MIC ([16]; E. cloacae isolate 18, strain 3077): 64 µg/mL | MIC ([16]; E. cloacae isolate 19, strain 3356): 128 µg/mL and 64 µg/mL | MIC ([17]; P. aeruginosa isolate 23, strain ATCC 27853): 64 µg/mL and 128 µg/mL | MIC ([17]; P. aeruginosa isolate 24, strain 34): 64 µg/mL and 128 µg/mL | MIC ([17]; P. aeruginosa isolate 25, strain 923-1): 64 µg/mL and 128 µg/mL | MIC ([17]; P. aeruginosa isolate 26, strain 3101): 64 µg/mL and 128 µg/mL | MIC ([18]; X. maltophila isolate 34, strain ATCC 13637): 64 µg/mL | MIC ([18]; X. maltophila isolate 35, strain 6): 64 µg/mL and 128 µg/mL | MIC ([18]; X. maltophila isolate 40, strain R1302-1): 128 µg/mL and 64 µg/mL | MIC ([18]; X. maltophila isolate 41, strain R4230): 64 µg/mL
